The results in this text go back to patent publication US20170176436A1, “METHODS (AMACR)” (UNIVERSITY OF BATH, priority 2014, published 2017).

As usually defined, the Km is the concentration of substrate that gives half-maximal velocity. In general, Vmax refers to the top rate of the reaction or transport when substrate is in excess. A word on the kcat: it is the number of substrate molecules converted per active site and unit of time at saturation. As a reminder, the kcat/Km is the second-order rate constant that governs catalysis at low substrate concentration.

In data set [1] the target is T1, human recombinant AMACR 1A (Homo sapiens, UniProt Q9UHK6).
T1 construct: made in house
T1 sequence (Q9UHK6 1-382): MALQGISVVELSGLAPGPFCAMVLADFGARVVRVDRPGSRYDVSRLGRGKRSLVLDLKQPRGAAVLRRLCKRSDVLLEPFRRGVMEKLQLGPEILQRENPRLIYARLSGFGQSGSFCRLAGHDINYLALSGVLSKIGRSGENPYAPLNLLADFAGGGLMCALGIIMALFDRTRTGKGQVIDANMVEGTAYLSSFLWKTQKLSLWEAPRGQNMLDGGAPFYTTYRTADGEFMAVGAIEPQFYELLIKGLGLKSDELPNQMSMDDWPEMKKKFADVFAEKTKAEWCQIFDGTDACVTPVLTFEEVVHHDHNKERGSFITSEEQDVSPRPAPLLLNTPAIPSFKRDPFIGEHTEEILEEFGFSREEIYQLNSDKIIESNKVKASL
Nature of the data set: Colorimetric assay for AMACR, 96-well plate, absorbance at 354 nm. The class given is biochemical. As to the method: Based on this elimination reaction, a colorimetric assay was developed. […] 2,4-dintrophenol was chosen as the leaving group as the pKa of the acid is similar to that of HF.
The elimination reaction is shown in Reaction Scheme 2 below:
The above assay was transferred into a 96-well plate format with the extent of reaction monitored by absorbance at 354 nm. The reaction was carried out in Na2HPO4—NaOH, pH 7.4 in a total volume of 100 μL containing 8.05 μg (0.17 nmoles) of human recombinant AMACR 1A.
The kinetics assay was carried out in a 96 well plate. Substrate stock solutions (at 2× the final concentration) were prepared by serial dilution in a total volume of 150 μL in phosphate buffer (as already described). This solution (50 μL) was transferred into […], such that three identical wells were prepared. The reaction was initiated by adding a 2× stock solution of enzyme (50 μL per well) to the substrate, mixing and measuring the change in absorbance at 354 nm over a 15 minute time course, with data collected every 60 seconds. The reaction was conducted at ambient room temperature, ca. 25° C. The final concentrations of substrate (in the assay, after adding the enzyme) were: 256.3, 180.9, 113.9, 75.9, 50.6, 33.8, 22.5, 15.0 μM.
Rates were determined by plotting the absorbance vs. time in Microsoft Excel. The initial rate was used before the rate starts to reduce due to substrate depletion and other reasons. The rate in absorbance units/min was derived by fitting a straight line to the points and determining the slope from the y=mx+c equation.
The data was converted into nmol/min/mg using the extinction coefficient,^8 the pathlength (calculated by the plate-reader based on the volume of the reaction; 0.33 cm), and the amount of enzyme determined by UV-visible spectroscopy.^1 Kinetic constants were derived using SigmaPlot 12 with the enzyme kinetics macro function. Fitting assumed a single substrate per active site, two active sites per dimer (one active sites per protein molecule), with three repeats of each rate. […] Kinetic data was also calculated using the Direct Linear Plot^3,4 A similar method (with a different enzyme) has also been described.^10

The target of data set [2] is T2, Human AMACR (Homo sapiens, UniProt Q9UHK6).
T2 construct: inferred only from purification by metal-chelate chromatography; made in house; host or cells: E. coli Rosetta2 (DE3)
T2 sequence (Q9UHK6 1-382): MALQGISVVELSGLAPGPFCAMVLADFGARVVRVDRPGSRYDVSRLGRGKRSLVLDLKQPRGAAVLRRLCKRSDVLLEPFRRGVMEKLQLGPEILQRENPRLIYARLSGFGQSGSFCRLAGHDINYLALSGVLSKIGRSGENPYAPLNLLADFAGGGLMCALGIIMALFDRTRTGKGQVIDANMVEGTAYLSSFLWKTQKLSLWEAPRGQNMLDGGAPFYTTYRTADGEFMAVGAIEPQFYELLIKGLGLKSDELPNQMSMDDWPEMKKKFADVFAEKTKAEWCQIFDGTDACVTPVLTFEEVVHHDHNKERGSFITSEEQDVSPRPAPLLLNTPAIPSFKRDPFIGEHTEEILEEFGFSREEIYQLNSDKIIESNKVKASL
Nature of the data set: AMACR-catalysed elimination reaction of 3-fluoro-2-methylacyl-CoA esters, monitored by 1H and 19F NMR. The class given is biochemical. How it is done: (§1) Human AMACR was expressed in E. coli Rosetta2 (DE3) at 22° C. overnight shaking at 220 r.p.m.^1 Cells (˜2 g) were lysed using the ‘one shot’ in ˜30 mL buffer supplemented with 250u benzonase (Novagen) and stirred with 1.5% (w/v) N-lauroyl-sarcosine at 4° C. for 1 hour. Following centrifugation, enzyme was purified by metal-chelate chromatography, dialysed into 20 mM NaH2PO4—NaOH, pH 7.4 and stored at −80° C.^1,2
(§2) Assays were conducted in buffer containing ^2H2O and 100 μM acyl-CoA substrate as previously described, with negative controls contain heat-inactivated enzyme. ±-Fenoprofenoyl-CoA or 2-methyldecanoyl-CoA was used as known substrates.^1,2 Assays were quenched by heating to 50° C. for 10 minutes before ^1H NMR analysis (500.13 MHz). Conversion of substrates was quantified by conversion of the 2-Me doublet at ca. 1.0 p.p.m. into a singlet.^1,2 Kinetic data was analysed as previously described^1,2 and parameters were obtained using SigmaPlot 12 with the Direct Linear Plot^3,4 and non-linear fitting of Michaelis-Menten parameters.
(§3) The 3S and 3R stereoisomers of the 3-fluoro-2-methylacyl-CoA esters were then incubated with AMACR and the reaction was monitored by ^1H and ^19F NMR. Interconversion of 3S and 3R by chiral inversion was expected to be observed. […] The synthetic product compound was produced from the E-acid, which had the alkene proton at 6.92 p.p.m., whilst the Z-isomer has an alkene proton at 6.09 p.p.m. in the ^1H NMR spectrum. The presence of fluoride was observed as a characteristic signal at −120 p.p.m. in the ^19F spectrum. Increasing amounts of the unsaturated product compound and inorganic fluoride were observed upon incubation of either 3S or 3R with AMACR for longer times. This reaction was not observed in negative controls containing heat-inactivated enzyme. […] This observed irreversibility of the elimination reaction probably results from the high levels of hydration of the fluoride anion.

For data set [3], the target named is T1, human recombinant AMACR 1A. Nature of the data set: Measurement of inhibitor potency using the elimination assay (1H NMR). The class given is biochemical. As to the method: Assays were performed as previously described in a total volume of […] in the presence of ^2H2O. using human recombinant AMACR 1A^2. In the following table inhibitor at 100 μM was incubated with enzyme for 10 minutes at room temperature. The reaction was initiated by addition of a stock solution of substrate (2S,3R-3-fluoro-2-methyldecanoyl-CoA) to a final concentration of 100 μM, followed by incubation at 30° C. for 1 hour. The reaction was terminated by heating at ca. 55° C. for 10 minutes. The cooled reaction mixture analysed by ^1H NMR by the appearance of the unsaturated product peak at ca. 1.75 ppm and comparison to the residual substrate peak at 1.1 ppm.^5 Assays were compared to a positive control (no inhibitor) and conversion levels are corrected for levels in negative controls (boiled enzyme). The data in the table is the average of two […] repeats.
Similar assays were also conducted where inhibitor and substrate were added to the enzyme simultaneously.

The target in data set [4] is T2, Human AMACR. Nature of the data set: AMACR chiral inversion reaction of a known substrate, 1H NMR assay. The data set is classed as biochemical. As to the method:
as §1, §2

Substrate in data set [5]: CCCCCCC[C@@H](F)[C@@H](C)C(=O)SCCNC(=O)CCNC(=O)[C@H](O)C(C)(C)COP(=O)(O)OP(=O)(O)OC[C@H]1O[C@@H](n2cnc3c(N)ncnc32)[C@H](O)[C@@H]1OP(=O)(O)O
Nature of the data set: AMACR-catalysed elimination reaction of 3-fluoro-2-methylacyl-CoA esters, monitored by 1H and 19F NMR. The data set is classed as biochemical, human. Conditions: other: elimination reaction; Direct Linear Plot; 1H NMR; pH 7.4. As to the method: as §1, §2, §3

Substrate in data set [6]: CCCCCCCCC(C)C(=O)SCCNC(=O)CCNC(=O)[C@H](O)C(C)(C)COP(=O)(O)OP(=O)(O)OC[C@H]1O[C@@H](n2cnc3c(N)ncnc32)[C@H](O)[C@@H]1OP(=O)(O)O
Nature of the data set: AMACR chiral inversion reaction of a known substrate, 1H NMR assay. The data set is classed as biochemical, human. Conditions: other: chiral inversion reaction; pH 7.4. As to the method:
as §1, §2

Where [7] appears, read: elimination of 2,4-dinitrophenoxide, pH 7.4, ca. 25° C., absorbance 354 nm.
[8] abbreviates: elimination reaction, Direct Linear Plot, 1H NMR.
Setting [9] is: inhibitor 100 μM incubated with enzyme 10 minutes at room temperature before substrate, enzyme 0.06 mg/mL, substrate 2S,3R-3-fluoro-2-methyldecanoyl-CoA 100 μM, 30° C. 1 hour.
The mark [10] stands for this setting: inhibitor and substrate added to the enzyme simultaneously, enzyme 0.12 mg/mL.

On to `CC(COc1ccc([N+](=O)[O-])cc1[N+](=O)[O-])C(=O)SCCNC(=O)CCNC(=O)[C@H](O)C(C)(C)COP(=O)(O)OP(=O)(O)OC[C@H]1O[C@@H](n2cnc3c(N)ncnc32)[C@H](O)[C@@H]1OP(=O)(O)O` (mixture of isomers) [colorimetric substrate, racemic 3-(2,4-dinitrophenoxy)-2-methyl-propanoyl-CoA], for which, in data set [1], the “conversion efficiency relative to anti-3-fluoro-2-methyldecanoyl-CoA, as judged by kcat/Km” value is on record as about 35%. The “colour produced on incubation with active AMACR” value in data set [1] (absent in negative controls using heat-inactivated enzyme) is “intense yellow colour”. In addition, in data set [1] (setting [7]), the Km was 18 µM, the maximal velocity (Vmax) was found to be 27.61 nmol/min/mg and the kcat was 0.023 s⁻¹.
In the case of `CCCCCCC[C@@H](F)[C@H](C)C(=O)SCCNC(=O)CCNC(=O)[C@H](O)C(C)(C)COP(=O)(O)OP(=O)(O)OC[C@H]1O[C@@H](n2cnc3c(N)ncnc32)[C@H](O)[C@@H]1OP(=O)(O)O` [Compound 5, (2S,3R)-3-Fluoro-2-methyldecanoic-CoA], at Human AMACR [2] (setting [8]), the Km was 21 µM, the maximal velocity (Vmax) was 96.5 nmol·min^−1·mg polypeptide^−1 and the kcat came to 0.0758 s⁻¹.
With `CCCCCCC[C@@H](F)[C@@H](C)C(=O)SCCNC(=O)CCNC(=O)[C@H](O)C(C)(C)COP(=O)(O)OP(=O)(O)OC[C@H]1O[C@@H](n2cnc3c(N)ncnc32)[C@H](O)[C@@H]1OP(=O)(O)O` [Compound 11, (2R,3R)-3-Fluoro-2-methyldecanoyl-CoA], the Vmax at Human AMACR [2] (setting [8]) was ~50.6 nmol·min^−1·mg polypeptide^−1. For the same molecule, the “background conversion in negative controls (non-enzymatic elimination)” value at Human AMACR [2] (negative controls with heat-inactivated enzyme) is “significant background conversion”.
As to `CC(C(=O)SCCNC(=O)CCNC(=O)C(O)C(C)(C)COP(=O)(O)OP(=O)(O)OCC1OC(n2cnc3c(N)ncnc32)C(O)C1OP(=O)(O)O)c1cccc(Oc2ccccc2)c1` (stereo not shown) [Fenoprofenoyl-CoA], the “Average reduction in conversion” value in data set [3] (setting [9]) is 14.1%.
On to `CC(C(=O)SCCNC(=O)CCNC(=O)C(O)C(C)(C)COP(=O)(O)OP(=O)(O)OCC1OC(n2cnc3c(N)ncnc32)C(O)C1OP(=O)(O)O)c1ccc(-c2ccccc2)c(F)c1` (stereo not shown) [Flurbiprofenoyl-CoA], for which the “Average reduction in conversion” value in data set [3] (setting [9]) amounted to 3.5%.
As to `CC(C)Cc1ccc(C(C)C(=O)SCCNC(=O)CCNC(=O)C(O)C(C)(C)COP(=O)(O)OP(=O)(O)OCC2OC(n3cnc4c(N)ncnc43)C(O)C2OP(=O)(O)O)cc1` (stereo not shown) [Ibuprofenoyl-CoA], the “Average reduction in conversion” value in data set [3] (setting [9]) turned out to be 14.5%; in data set [3] (setting [10]), 11%.
With `CC(C(=O)SCCNC(=O)CCNC(=O)C(O)C(C)(C)COP(=O)(O)OP(=O)(O)OCC1OC(n2cnc3c(N)ncnc32)C(O)C1OP(=O)(O)O)c1cccc(C(=O)c2ccccc2)c1` (stereo not shown) [Ketoprofenoyl-CoA], in data set [3] (setting [9]), the “Average reduction in conversion” value is reported as 4.5%.
Same read-out and setting: then `COc1ccc2cc(C(C)C(=O)SCCNC(=O)CCNC(=O)C(O)C(C)(C)COP(=O)(O)OP(=O)(O)OCC3OC(n4cnc5c(N)ncnc54)C(O)C3OP(=O)(O)O)ccc2c1` (stereo not shown) [Naproxenoyl-CoA], with 4.7%.
As for `CCCCCCCC[C@@H](C)C(=O)SCCNC(=O)CCNC(=O)[C@H](O)C(C)(C)COP(=O)(O)OP(=O)(O)OC[C@H]1O[C@@H](n2cnc3c(N)ncnc32)[C@H](O)[C@@H]1OP(=O)(O)O` [R-2-methyldecanoyl-CoA], in data set [3] (setting [10]), the “Average reduction in conversion” value is listed as 13.6%.
As for `CCCCCCCCC(C)C(=O)SCCNC(=O)CCNC(=O)[C@H](O)C(C)(C)COP(=O)(O)OP(=O)(O)OC[C@H]1O[C@@H](n2cnc3c(N)ncnc32)[C@H](O)[C@@H]1OP(=O)(O)O` (stereo partly shown) [S-2-methyldecanoyl-CoA], the Vmax at Human AMACR [4] is 39.3 nmol·min^−1·mg^−1 polypeptide. Moreover, the “Average reduction in conversion” value in data set [3] (setting [10]) is 7.2%.

B1: Human AMACR (Homo sapiens) (protein)
chain: MALQGISVVELSGLAPGPFCAMVLADFGARVVRVDRPGSRYDVSRLGRGKRSLVLDLKQPRGAAVLRRLCKRSDVLLEPFRRGVMEKLQLGPEILQRENPRLIYARLSGFGQSGSFCRLAGHDINYLALSGVLSKIGRSGENPYAPLNLLADFAGGGLMCALGIIMALFDRTRTGKGQVIDANMVEGTAYLSSFLWKTQKLSLWEAPRGQNMLDGGAPFYTTYRTADGEFMAVGAIEPQFYELLIKGLGLKSDELPNQMSMDDWPEMKKKFADVFAEKTKAEWCQIFDGTDACVTPVLTFEEVVHHDHNKERGSFITSEEQDVSPRPAPLLLNTPAIPSFKRDPFIGEHTEEILEEFGFSREEIYQLNSDKIIESNKVKASL
notes: inferred only from purification by metal-chelate chromatography; made in house; host or cells: E. coli Rosetta2 (DE3)
Regarding B1, in data set [5], the Km worked out at 40 µM, the kcat was determined as 0.0397 s⁻¹ and the kcat/Km was 993 M⁻¹ s⁻¹. Moreover, in data set [6], the Km turned out to be 277 µM, the kcat is 0.0310 s⁻¹ and the kcat/Km is 112 M⁻¹ s⁻¹.
